This is an account of results in patent US10334847B2, “Antifungal composition” (The University of Sussex, priority 2014, dated 2019).

The test system of one assay is Chalara fraxinea. The experiment in a line: Agar plate growth inhibition assay of fungicides against fungi (Chalara fraxinea). The format is cell-based. The conditions noted are these: Chalara fraxinea on YPG agar plates, 3-5 days at 30° C.; compounds used separately or in combination. The protocol:
Example 1—Assays Used to Test Fungicides Against Fungi (e.g. Chalara fraxinea)
• 2% Yeast extract • 2% Peptone • 2% D-glucose • 2% agar YPG • 2% Yeast extract • 2% Peptone • 2% Glycerol • 2% agar Fungicide Formulations
Colletochlorin B was synthesised using the methodology described in WO 2013/160670 with reference to FIG. 7. Then, 1 μM of Colletochlorin B is separately combined with […] of each of the following fungicides to produce seven different formulations:— • 1) Metalaxyl—belongs to the phenylamide fungicide family (Sukul, P. and M. Spiteller (2000) “Metalaxyl: persistence, degradation, metabolism, and analytical methods.” Rev Environ Contam Toxicol 164: 1-26); • 2) Azoxystrobin—belongs to the strobilurin family; • 3) DMI (DeMethylation Inhibitor); • 4) CuPC33—A copper based compound; • 5) Boscalid; • 6) Difenconcozole; and • 7) Pyraclostrobin. Methods • 1. Yeast strains are streaked out and grown on YPD agar plates for 3 days at 30° C. • 2. 5 mL of YPD liquid media is inoculated with a fungal strain of interest (e.g. Chalara fraxinea) and grown for 3 days at 30° C. with shaking at 180 rpm. • 3. 1 μL inoculum of the fungal strain is added to 9999 μL YPG liquid media and gently mixed. • 4. […] The degree of inhibition of fungal/yeast growth caused by the inhibitors is then assessed. […]

Another assay concerns S. cerevisiae. The experiment in a line: Agar plate growth inhibition assay against S. cerevisiae. The conditions noted are these: S. cerevisiae on YPG agar plates, 1 μM of each compound, alone or in combination, 3-5 days at 30° C.; FIG. 8. Format: cell-based. The protocol:
The inventors tested the efficacy of a combination of Colletochlorin B and azoxystrobin on the growth of S. cerevisiae. As in Example 1, Colletochlorin B was synthesised using the methodology described in WO 2013/160670 with reference to FIG. 7.
• 1. S. cerevisiae was streaked out and grown up on YPD agar plates for 3 days at 30° C. • 2. 5 mL of YPG liquid media was inoculated with S. cerevisiae from the YPD plates and grown for 3 days at 30° C. with shaking at 180 rpm to produce a cell culture. • 3. Approximately 5×10^5 cells of the S. cerevisiae were then plated out onto YPG agar plates containing 1 μM Colletochlorin B, or 1 μM azoxystrobin, or a combination of 1 μM Colletochlorin and 1 μM azoxystrobin. • 4. The plates were incubated for 3-5 days at 30° C. • 5. The degree of inhibition of fungal/yeast growth caused by the inhibitors was then assessed.
For each plate, the yeast colony grown in the centre at the top was not grown in the presence of any inhibitor acting as a negative control. However, for the plate shown in FIG. 8A, the colony shown on the lower left was grown in the presence of only 1 μM Colletochlorin B, and for the plate shown in FIG. 8B, the colony shown on the lower left was grown in the presence of only 1 μM azoxystrobin. […]

For assay [1], the system named is microbial alternative oxidase (AOX). The conditions noted are these: disclosed in WO 2013/160670; cited from earlier work.
In the next assay the test system is cytochrome bc1 complex. The conditions noted are these: disclosed in WO 2013/160670; cited from earlier work.

Consider `CO/C=C(/C(=O)OC)c1ccccc1Oc1cc(Oc2ccccc2C#N)ncn1` [Azoxystrobin, reference compound], for which the “degree of inhibition of fungal growth” value with Chalara fraxinea is recorded as “partial growth inhibition”. The “degree of inhibition of fungal/yeast growth” value in the assay on S. cerevisiae is “partial growth inhibition”.
In the case of `CC(C)=CCC/C(C)=C/Cc1c(O)c(Cl)c(C)c(C=O)c1O` [Colletochlorin B], the “degree of inhibition of fungal growth” value in the assay with Chalara fraxinea was “partial growth inhibition”. For the same compound, the “degree of inhibition of fungal/yeast growth” value in the assay on S. cerevisiae was “partial growth inhibition”. Moreover, in assay [1], the “inhibition of AOX” value is reported as “particularly effective inhibition”. Moreover, the “inhibition of cytochrome bc1 complex” value with cytochrome bc1 complex is recorded as “particularly effective inhibition”.
